Test results from US20250152626A1, “CONSTRUCTION AND APPLICATION OF ENHANCED NEUTROPHIL DRUG” (China Pharmaceutical University, priority 2023, published 2025).

Tested on: Human neutrophils
Experiment: Effect of single inducers on neutrophil viability (Example 1)
Type: cell-based
Conditions: FIG. 2; for effect on neutrophil lifespan / viability: single inducer 8 h in 1640 medium, inducer removed, culture 24 h, apoptosis by flow cytometry; for concentration with the best effect on neutrophil lifespan: cytokine inducers tested at 0-100 ng/mL
Protocol: Human neutrophils were incubated with different concentrations of single inducers in 1640 medium for 8 h. Different concentrations of single inducers included: • inducer 1 (IFNγ): 0, 10, 20, 30, 50, 100 ng/mL; • inducer 2 (GM-CSF): 0, 10, 20, 30, 50, 100 ng/mL; • inducer 3 (TNFα): 0, 10, 20, 30, 50, 100 ng/mL; • inducer 4 (duvalumab): 0.1, 0.5, 1, 2, 3, 5, 8, 10 μg/mL; • inducer 5 (avelumab): 0.1, 0.5, 1, 2, 3, 5, 8, 10 μg/mL; • inducer 6 (Q-VD-Oph): 1, 10, 20, 50, 60, 80, 100 μM; and • inducer 7 (Nec-1): 1, 10, 20, 50, 60, 80, 100 μM; and • conditions of culture were 37° C. and 5% CO2. The apoptosis of neutrophils was detected by flow cytometry after removing the inducer and continuing culture for 24 h.

[1] = apoptosis inhibitors tested at 1-100 μM
[2] = PD-L1 inhibitors tested at 0.1-10 μg/mL

Molecule: CC(C)[C@H](NC(=O)c1ccc2ccccc2n1)C(=O)N[C@@H](CC(=O)O)C(=O)COc1c(F)cccc1F [inducer 6, Q-VD-Oph]
- concentration with the best effect on neutrophil viability [1]: 50 µM
- effect on neutrophil lifespan / viability: increase neutrophil viability

Molecule: CN1C(=O)C(Cc2c[nH]c3ccccc23)NC1=S (stereo not drawn) [inducer 7, Nec-1]
- concentration with the best effect on neutrophil viability [1]: 50 µM
- effect on neutrophil lifespan / viability: increase neutrophil viability

Molecule: GM-CSF [inducer 2]
- concentration with the best effect on neutrophil lifespan: 20 ng/mL
- effect on neutrophil lifespan / viability: significantly prolong the lifespan of neutrophils

Molecule: avelumab [inducer 5]
- concentration with the best effect on neutrophil viability [2]: 2 µg/mL
- effect on neutrophil lifespan / viability: increase neutrophil viability

Molecule: duvalumab [inducer 4]
- concentration with the best effect on neutrophil viability [2]: 2 µg/mL
- effect on neutrophil lifespan / viability: increase neutrophil viability

B1: IFNγ (protein, UniProt P01579 24-161, looked up)
Interferon gamma: QDPYVKEAENLKKYFNAGHSDVADNGTLFLGILKNWKEESDRKIMQSQIVSFYFKLFKNFKDDQSIQKSVETIKEDMNVKFFNSNKKKRDDFEKLTNYSVTDLNVQRKAIHELIQVMAELSPAAKTGKRKRSQMLFRG
notes: cytokine, single inducer
- concentration with the best effect on neutrophil lifespan: 20 ng/mL
- effect on neutrophil lifespan / viability: significantly prolong the lifespan of neutrophils
